Data published in patent publication US5298494A, “Monosaccharides having anti-proliferation and anti-inflammatory activity, compositions and uses thereof” (Greenwich Pharmaceuticals Incorporated, priority 1993, dated 1994).

Key:
[1] = test system: PGE2 production by BUD-8 skin cell fibroblasts; test: PGE2 production by BUD-8 skin cell fibroblasts (radioimmunoassay); format: cell-based, human; conditions: concentration not given; for % effect on PGE2 production (positive control): 1080 min
Experimental: (§1) The effect of the compound of the present invention on the proliferative capacity of human BUD-8 skin fibroblasts was measured with the use of a ^3 H-thymidine incorporation assay using culture conditions which were similar to those used for a Con-A blastogenesis assay, described previously. Cultured skin cells were detached from the surface of tissue culture flasks mechanically with a Teflon scraper. The cells were washed, resuspended in incubation medium and the viabilities were determined. These cells were then plated in triplicate at a density of 2×10^3 cells/0.1 ml/microtiter well for the proliferation assay and a density of 1×10^4 cells/0.1 ml/microtiter well for the assays to quantitate PGE2 and LTB4. To these cells was added incubation medium containing indomethacin to inhibit prostaglandin production, or nordihydroguaiaretic acid (NDGA) to inhibit leukotriene production (positive controls).
(§2) After 18 hours of culture, samples of the BUD-8 skin cell supernatants were collected from one set of microtiter plates and frozen until assayed for PGE2 or for LTB4 content using the radioimmunoassays described below.
A radioinmunoassay (New England Nuclear) was used to quantitate PGE2 levels in BUD-8 skin cell culture supernatants. Briefly, into each polypropylene tube were mixed 0.1 ml anti-PGE2, 0.1 ml ^125 1-PGE2 and 0.1 ml PGE2 standard or PGE2 containing sample. The BUD-8 skin culture supernatants were diluted 1:2 prior to addition to the radioimmunoassay. Tubes were refrigerated overnight. A polyethylene glycol solution (16%, 6,000 m.w.) was then added to precipitate immune complexes and the radioactivity in the precipitate was counted in a gamma counter.

[2] = test system: T lymphocytes (normal mouse spleen cells) stimulated with ConA; test: Mouse Spleen Cell ConA Blastogenesis Assay; format: cell-based, mouse (C57Bl/6); conditions: control compound, concentration not given
[3] = test system: GS-109-V-20 human skin cell fibroblasts; test: Fibroblast assay: proliferation of GS-109-V-20 skin cell fibroblasts; format: cell-based; conditions: for ^3 H-Thymidine uptake by GS-109-V-20 skin cells (control compound): 2 × 10^-6 M Indomethacin, 2 × 10^-6 N NDGA
Experimental: The effect of methyl 3-O-3'-(N',N'-dimethylamino-n-propyl)-6-deoxy-D-glucopyranoside on the proliferative capacity of human GS-109-V-20 skin fibroblasts was measured with the use of ^3 H-thymidine incorporation assay. Cultured skin cells were detached from the surface of tissue culture flasks mechanically with a Teflon scraper. The cells were washed, resuspended in incubation medium and the viabilities determined. These cells were then plated in triplicate at a density of 1×10^3 cells/0.1 ml/microtiter well. To these cells was added 0.1 ml incubation medium containing the methyl 3-O-3'-(N',N'-dimethylamino-n-propyl)-6-deoxy-D-glucopyranoside compound.
After 3 days of culture, 1#uCi ^3 H-thymidine was added in 50 ul volume to each culture well of the microtiter plates. Eighteen hours later, each of the GS-109-V-20 cultures was examined morphologically for evidence of drug-induced toxicity such as cell rounding or granularity. The ^3 H-thymidine-pulsed cells were then precipitated and the amount of ^3 H-thymidine incorporation was counted on a liquid scintillation counter.
Methyl 3-O-3'-(N',N'-dimethylamino-n-propyl)-6-deoxy-D-glucopyranoside was suspended directly into the medium by extensive sonication, without being filter-sterilized. A range of doses of this compound was used to measure effects of this compound upon GS-109-V-20 cell proliferation. The following doses were used:
The human skin cell fibroblast line, GS-109-V-20, was obtained from the American Type Culture-Collection. […] These cells were selected for use because they are considered to exist in an initiated state, as opposed to being normal or transformed, and have a more extensive population doubling time and survival period in culture than do normal fibroblasts. In this regard, they would more closely reflect the biological characteristics of psoriatic or rheumatoid synovial fibroblasts which also proliferate more extensively than do normal fibroblasts, but not as extensively as immortalized transformed tumor cells.
(§3) The number of GS-109-V-20 cells was expanded for use in the described assays by culture in 25 cm^2 flasks at 37° C. in an atmosphere of 5% CO2 in air. At approximately 4-5 day intervals, or when confluence was reached, the cells were passaged. This was accomplished by detaching the cells by trypsinization, washing and reseeding the cells at a lower density into fresh tissue culture flasks.

[4] = test system: LTB4 production by BUD-8 skin cell fibroblasts; test: LTB4 production by BUD-8 skin cell fibroblasts (radioimmunoassay); format: cell-based, human; conditions: concentration not given; for % effect on LTB4 production (positive control): 1080 min
Experimental: as §1, §2
Levels of LTB4 in aliquots of BUD-8 skin cell cultures supernatants were quantitated by radioimmunoassay (New England Nuclear). Briefly, into each polyproplyene tube were mixed 0.1 ml anti-LTB4, 0.1. ml ^3 H-LTB4 and 0.1 ml LTB4 standard or LTB4 containing sample. The BUD-8 skin cell culture supernatants were used directly in the radioimmunoassay. Tubes were refrigerated overnight. A charcoal solution (0.5 ml of 0.5% charcoal Norit A) was added and each tube was centrifuged. The radioactivity in the supernatant was then counted in a liquid scintillation counter.

[5] = test system: BUD-8 human skin fibroblasts; test: Fibroblast assay: proliferation of BUD-8 skin cell fibroblasts; format: cell-based; conditions: concentration not given
Experimental: The human skin cell fibroblast line, BUD-8 was obtained prior to each assay from the American Type Culture Collection. This is a fibroblast-like cell line which was originally derived from the normal skin of a person.
as §3, with “BUD-8 cell cultures were” for “The number of GS-109-V-20 cells was”, “use” for “use in the described assays by culture”, “4-5 five” for “4-5”, “with a Teflon scraper,” for “by trypsinization,”
as §1
After 3 days of culture, 1 uCi ^3 H-thymidine was added in a 50 ul volume to each culture well of the microtiter plates. Eighteen hours later, each of the BUD-8 cultures was examined morphologically for evidence of compound-induced toxicity such as cell rounding or granularity. The thymidine-pulsed cells were then precipitated and the amount of ^3 H-thymidine incorporated was counted in a liquid scintillation counter.
The concentrations of the compounds of the invention which were used in these assays were:
The incubation medium used for culturing the BUD-8 cells was RPMI-1640 medium containing 10% fetal bovine serum, 100 ug/ml streptomycin, 100 U/ml penicillin, 0.2M Hepes buffer solution, 5×10^-5 M 2-mercaptoethanol and 2 mM glutamine.

Row | Structure (SMILES) | PGE2 in supernatant (positive control) [1] | calculated PGE2 production/10^5 BUD-8 cells (positive control) [1] | % effect on PGE2 production (positive control) [1] | % effect on ConA blastogenic response (positive control) ([2]; ConA 1 ug/ml) | Blastogenic response of normal spleen cells to Con-A (positive control) ([2]; ConA 1 ug/ml) | % effect on ConA blastogenic response (positive control) ([2]; ConA 4 ug/ml) | Blastogenic response of normal spleen cells to Con-A (positive control) ([2]; ConA 4 ug/ml) | ^3 H-Thymidine uptake by GS-109-V-20 skin cells (control compound) [3] | inhibition at 2 µM ([3]; Homo sapiens, Fibroblast, read-out: % effect on GS-109-V-20 proliferation (control compound)) | LTB4 in supernatant (positive control) [4] | calculated LTB4 production/10^5 BUD-8 cells (positive control) [4] | % effect on LTB4 production (positive control) [4] | % effect on BUD-8 proliferation (positive control) [5] | ^3 H-Thymidine uptake by BUD-8 skin cells (positive control) [5]
1 | COc1ccc2c(c1)c(CC(=O)O)c(C)n2C(=O)c1ccc(Cl)cc1 [Indo., indomethacin, reference compound] | 5.3 ± 0.5 pg PGE2 /50 ul supernatant | 187 pg per 10^5 cells | -66% | +4% | 57.7 ± 8.7 × 10^-3 cpm | -17% | 70.0 ± 5.6 × 10^-3 cpm | 3,317 ± 351 cpm | 14% | 39.4 ± 5.3 pg LTB4 100 ul supernatant | 1,771 pg per 10^5 cells | +10% | -17% | 6,043 ± 184 cpm
2 | CC(Cc1ccc(O)c(O)c1)C(C)Cc1ccc(O)c(O)c1 (stereo not drawn) [NDGA, nordihydroguaiaretic acid, reference compound] | 14.7 ± 0.8 pg PGE2 /50 ul supernatant | 933 pg per 10^5 cells | -8% | -14% | 47.6 ± 5.0 × 10^-3 cpm | -24% | 64.1 ± 9.2 × 10^-3 cpm | 3,179 ± 489 cpm |  | 19.9 ± 1.5 pg LTB4 100 ul supernatant | 794 pg per 10^5 cells | -45% | -5% | 6,925 ± 313 cpm
